No end group written: not given here.
How the values were obtained:
[1] = Thermal melts monitored by circular dichroism at 222 nm (coiled coil peptides); format: physicochemical; conditions: surface designs on GCN4-p1, pH 7.0, 40 μM
Experimental: A 1 mm pathlength cell was used and the temperature was controlled by a thermoelectric unit. Thermal melts were performed in the same buffer using two degree temperature increments with an averaging time of 10 s and an equilibration time of 90 s. […] Peptide concentrations were determined from the tyrosine absorbance at 275 nm (Huyghues-Despointes, et al., supra).

[2] = Circular dichroism spectra, ellipticity at 222 nm and helical content (coiled coil peptides); format: physicochemical; conditions: 1° C., 40 μM
Experimental: Circular dichroism CD spectra were measured on an Aviv 62DS spectrometer at pH 7.0 in 50 mM phosphate, 150 mM NaCl and 40 μM peptide. A 1 mm pathlength cell was used and the temperature was controlled by a thermoelectric unit.
Circular dichroism spectroscopy (CD) was used to assay the secondary structure and thermal stability of the designed peptides.
The secondary structures and thermal stabilities of the peptides were assessed by circular dichroism (CD) spectroscopy.

[3] = Size exclusion chromatography, oligomerization state (coiled coil peptides); format: physicochemical; conditions: pH 7.0, 0° C.
Experimental: Size exclusion chromatography: Size exclusion chromatography was performed with a Synchropak GPC 100 column (25 cm by 4.6 mm) at pH 7.0 in 50 mM phosphate and 150 mM NaCl at 0° C. […] 10 μl injections of 1 mM peptide solution were chromatographed at 0.20 ml/min and monitored at 275 nm. Peptide concentrations were approximately 60 μM as estimated from peak heights. Samples were run in triplicate.
Size exclusion chromatography was performed with a PolyLC hydroxyethyl A column (20 cm×9 mm) at pH 7.0 in 50 mM phosphate and 150 mM NaCl at 0° C. […] 5 μl injections of ˜1 mM peptide solution were chromatographed at 0.50 ml/min and monitored at 214 nm. Samples were run in triplicate.

[4] = format: physicochemical; conditions: pH 5.5

Substance	Tm [1]	[θ]222 [2]	N (oligomerization state) [3]	limited solubility [4]
Ac-RMAALEAKVAALLAKNAALEAEVAALKALVGER-NH2 [6F]	73 °C	–	–	–
Ac-RMNTLERKVAKLLSKNANLEHEVNTLKQLVGER-NH2 [6E]	15 °C	−12000 deg cm^2/dmol	2	–
Ac-RMEKLEDKVRELLRKNRRLEEEVRRLKELVGER-NH2 [6A]	71 °C	–	2	–
Ac-RMRELEEKVRRLLRKNEDLEREVKRLKELVGER-NH2 [6D]	71 °C	–	2	–
Ac-RMARLEAKVAALLAKNRRLEREVARLKALVGER-NH2 [6C]	69 °C	–	2	–
Ac-RMEKLEQKVKELLRKNERLEEEVERLKQLVGER-NH2 [6B]	72 °C	–	2	–
MTWKYIINGKTLKGETTTEIVDAATFEKVWKQYLNDNGIDGEFTYDDATKTLTITE [α70]	–	–	–	100 µM
